Experimental data taken from patent publication US20140357512A1, “HISTONE DEACETYLASE (HDAC) BIOMARKERS IN MULTIPLE MYELOMA” (priority 2013, published 2014).

Tested on: human myeloma cell line MM.1S
Test: SILAC acetylated-lysine peptide profiling, HDAC inhibitor vs DMSO (light/heavy ratio)
Format: cell-based
Text: An embodiment of the invention comprises utilizing the SILAC method in order to quantitate changes in protein expression between two or more populations of cells. The SILAC method is a technique based on mass spectrometry that detects differences in protein abundance among samples using non-radioactive isotopic labeling. The SILAC method is known in the art, and described in detail in Ong et al., “Stable Isotope Labeling by Amino Acids in Cell Culture, SILAC, as a Simple and Accurate Approach to Expression Proteomics”, Molecular & Cellular Proteomics, vol. 1, pp. 376-386 (2002), which is incorporated herein by reference in its entirety.
Briefly, the SILAC method involves growing two populations of cells in cell culture. The first population of cells is grown in growth media containing normal amino acids (“normal media”). The second population of cells is grown in media lacking a standard essential amino acid (such as lysine), but is then supplemented with a non-radioactive, isotopically labeled form of that essential amino acid (such as lysine labeled with ^13C atoms, rather than normal ^12C atoms), which is called “heavy media”. When the two populations of cells are each growing in the medium, they incorporate the amino acids into all of their proteins. The growth of cells maintained in the heavy media is no different from that in normal media. All peptides containing the heavy amino acids are heavier than their normal counterparts. The cells from each of the two populations of cells are lysed. The lysates from each of the two cell populations are then combined. The combined cell lysates are then analyzed by mass spectrometry. Pairs of chemically identical peptides of different stable isotope composition can be differentiated in a mass spectrometer due to their difference in mass. The ratio of peak intensities in the mass spectrum for such peptide pairs reflects the abundance ratio for the two proteins.
This example describes SILAC studies that were performed to compare the effects of three different HDAC inhibitors (Compound A, Compound B, and tubastatin A) to a control on a human multiple myeloma cell line. The HDAC inhibitors were also compared amongst themselves to determine differences in their effects.
A human myeloma cell line MM.1S was grown using either ^12C (light) or ^13C (heavy) lysine containing culture medium. The “heavy” cells were treated with DMSO as the control, and the “light” cells were treated with a single HDAC inhibitor at 37° C. for 6 hours. The heavy and light cells were lysed, and the lysates were mixed in 1:1 ratio and digested with the protease trypsin. The acetylated lysine containing peptides (due to the action of the HDAC inhibitor) in the digested peptide pool were captured by a non-specific anti-acetylated lysine antibody cocktail (the antibodies identify both light and heavy acetylated peptides), and subjected to mass spectrometry analysis in order to identify thousands of individual peptides.
Thousands of peptides were identified in pairs (^12C and ^13C) due to their known mass differences. The amino acid sequence and quantitative ratio (Light/Heavy) of a given peptide in two differentially treated cell lysates were then determined and annotated with their possible protein (gene) sources.
As stated above, three HDAC inhibitors (Compound A, Compound B, and Tubastatin A) were used. Thus, the SILAC method was performed three times, with a different HDAC inhibitor compared to a control each time. Accordingly, there are three pairs of quantitative data in the table below, i.e., Compound A:DMSO, Compound B:DMSO, and Tubastatin A:DMSO. A cut-off of 1.30 fold of change (increase or decrease) was then used to determine “changed” or “+” in the table, and any peptides with a fold of change less than 1.3 fold were determined to be “unchanged” or “0” in the table. Those peptides that were not identified were marked as “NA” in the table. […]

Compound: O=C(CCCCCCNC(=O)c1cnc(N(c2ccccc2)c2ccccc2)nc1)NO [Compound A, 2-(diphenylamino)-N-(7-(hydroxyamino)-7-oxoheptyl)pyrimidine-5-carboxamide]
- light to heavy ratio (L/H ratio) of acetylated peptide […](ac)FLK (SEQ ID NO: 326) (Isoform 5 of Transcriptional regulator ATRX [812], ATRX, drug:DMSO): 0.00 log 2
- light to heavy ratio (L/H ratio), log 2 scale, acetylated peptide YNDPIYVK(ac)LEK (SEQ ID NO: 764) (Isoform A of AP-1 complex subunit beta-1 [335], gene AP1B1, drug:DMSO): 0.93
- light to heavy ratio (L/H ratio) of acetylated peptide K(ac)VLFTCFK (SEQ ID NO: 529) (Isoform Beta-2 of DNA topoisomerase 2-beta [749], gene TOP2B, inhibitor:DMSO): −0.42 log 2
- light to heavy ratio (L/H ratio) of acetylated peptide K(ac)SSETLR (SEQ ID NO: 601) (Isoform CNPI of 23-cyclic-nucleotide 3-phosphodiesterase [177], gene CNP, inhibitor:DMSO): 0.46 log 2
- light to heavy ratio (L/H ratio) of acetylated peptide MVAAAK(ac)YAR (SEQ ID NO: 324) (Isoform Heart of ATP synthase subunit gamma mitochondrial [55], ATP5C1, drug:DMSO): 0.00 log 2
- light to heavy ratio (L/H ratio), log 2 scale, acetylated peptide VNK(ac)EVER (SEQ ID NO: 782) (Isoform Long of ES1 protein homolog mitochondrial [157], gene C21orf33, drug:DMSO): 1.00
- light to heavy ratio (L/H ratio) of acetylated peptide EFHQAGK(ac)[…] (SEQ ID NO: 623) (Isoform Long of ES1 protein homolog mitochondrial [171], gene C21orf33, inhibitor:DMSO): 0.48 log 2
- light to heavy ratio (L/H ratio) of acetylated peptide […](ac)R (SEQ ID NO: 588) (Isoform Long of Spectrin beta chain brain 1 [497], gene SPTBN1, inhibitor:DMSO): 0.44 log 2
- light to heavy ratio (L/H ratio) of acetylated peptide NLHSK(ac)WLK (SEQ ID NO: 589) (Isoform Long of Spectrin beta chain brain 1 [1312], gene SPTBN1, inhibitor:DMSO): 0.44 log 2
- light to heavy ratio (L/H ratio) of acetylated peptide VPNDK(ac)YYGAQTVR (SEQ ID NO: 625) (Isoform Mitochondrial of Fumarate hydratase mitochondrial [66], gene FH, inhibitor:DMSO): 0.49 log 2
- light to heavy ratio (L/H ratio) of acetylated peptide MMVAGFK(ac)K (SEQ ID NO: 339) (Isoform Short of Heterogeneous nuclear ribonucleoprotein U [524], HNRNPU, drug:DMSO): 0.00 log 2
- light to heavy ratio (L/H ratio) of acetylated peptide APQCLGK(ac)FIEIAAR (SEQ ID NO: 338) (Isoform Short of Heterogeneous nuclear ribonucleoprotein U [546], HNRNPU, drug:DMSO): 0.00 log 2
- light to heavy ratio (L/H ratio) of acetylated peptide LLEQYK(ac)EESK (SEQ ID NO: 302) (Isoform Short of Heterogeneous nuclear ribonucleoprotein U [651], HNRNPU, drug:DMSO): 0.89 log 2
- light to heavy ratio (L/H ratio) of acetylated peptide, log 2 scale (K(ac)[…] (SEQ ID NO: 246), Endoplasmin [270], HSP90B1): −0.54
- light to heavy ratio (L/H ratio), log 2 scale, acetylated peptide (ac)[…](ac)GAGK (SEQ ID NO: 801) (KRR1 small subunit processome component homolog [11], gene KRR1, drug:DMSO): 1.00
- light to heavy ratio (L/H ratio) of acetylated peptide, log 2 scale (KTPCGEGSK(ac)TWDR (SEQ ID NO: 245), 40S ribosomal protein S20 [75], SNORD54, RPS20): −0.69
- light to heavy ratio (L/H ratio) of acetylated peptide IVADK(ac)DYSVTANSK (SEQ ID NO: 317) (L-lactate dehydrogenase B chain [82], LDHB, drug:DMSO): 1.00 log 2
- L/H ratio of acetylated peptide (LAK(ac)LSDGVAVLK (SEQ ID NO: 484), 60 kDa heat shock protein mitochondrial [396], HSPD1): 0.61 log 2
- L/H ratio of acetylated peptide (LALQK(ac)QLTK (SEQ ID NO: 495), Isoform 2 of Zinc finger protein 385C [103], ZNF385C): −1.00 log 2
- L/H ratio of acetylated peptide IHLEIK(ac)QLNR (SEQ ID NO: 57) (LMAN1 [346], log 2 scale, drug vs DMSO): 0.00
- L/H ratio of acetylated peptide (LMK(ac)YGDSLYR (SEQ ID NO: 499), Nucleolar GTP-binding protein 1 [118], GTPBP4): −0.78 log 2
- L/H ratio of acetylated peptide LYK(ac)[…] (SEQ ID NO: 4) (LMNB1 [261], log 2 scale, drug vs DMSO): 0.00
- L/H ratio of acetylated peptide […](ac)LENAR (SEQ ID NO: 58) (LMNB1 [271], log 2 scale, drug vs DMSO): 0.00
- L/H ratio of acetylated peptide GFGYK(ac)GSCFHR (SEQ ID NO: 59) (LOC390956 [71], log 2 scale, drug vs DMSO): 0.00
- L/H ratio of acetylated peptide (LTLDK(ac)LDVK (SEQ ID NO: 485), Phosphoglycerate kinase 1 [11], PGK1): 0.65 log 2
- L/H ratio of acetylated peptide (LVDTGDK(ac)FR (SEQ ID NO: 478), Isoform Long of Spectrin beta chain brain 1 [1913], SPTBN1): −0.46 log 2
- L/H ratio of acetylated peptide (LVSEK(ac)LASYQAAR (SEQ ID NO: 476), Isoform 2 of Myc proto-oncogene protein [163], MYC): −0.82 log 2
- light to heavy ratio (L/H ratio) of acetylated peptide, log 2 scale (LYATMEK(ac)HK (SEQ ID NO: 251), Histone acetyltransferase p300 [1590], EP300): −0.43
- light to heavy ratio (L/H ratio) of acetylated peptide AVLK(ac)[…] (SEQ ID NO: 262) (Laminin receptor-like protein LAMRL5 [89], SNORA6, RPSAP15, SNORA62, RPSA, drug:DMSO): 0.41 log 2
- light to heavy ratio (L/H ratio) of acetylated peptide IHDVLCK(ac)LVEK (SEQ ID NO: 613) (Leucine-rich PPR motif-containing protein mitochondrial [864], gene LRPPRC, inhibitor:DMSO): 0.47 log 2
- light to heavy ratio (L/H ratio) of acetylated peptide SYVSEK(ac)DVTSAK (SEQ ID NO: 628) (Leucine-rich PPR motif-containing protein mitochondrial [1332], gene LRPPRC, inhibitor:DMSO): 0.49 log 2
- L/H ratio of acetylated peptide ICCQFDFK(ac)R (SEQ ID NO: 60) (MAN2A1 [373], log 2 scale, drug vs DMSO): 0.00
- L/H ratio of acetylated peptide YLTNQK(ac)NSNSK(ac)NDR (SEQ ID NO: 17) (MEAF6 [69:74], log 2 scale, drug vs DMSO): 1.00
- L/H ratio of acetylated peptide TLVLSDK(ac)HSPQK(ac)K (SEQ ID NO: 5) (MLL3 [2809:2814], log 2 scale, drug vs DMSO): 0.00
- light to heavy ratio (L/H ratio) of acetylated peptide VHLSQK(ac)YK (SEQ ID NO: 343) (Matrin-3 [473], MATR3, SNHG4, drug:DMSO): 0.00 log 2
- light to heavy ratio (L/H ratio) of acetylated peptide FLNK(ac)LAEER (SEQ ID NO: 342) (Matrin-3 [836], MATR3, SNHG4, drug:DMSO): 0.00 log 2
